Assay in all cases: Kinase selectivity, DiscoverX scanMAX Kinase assay panel (% control)
Type in all cases: binding

Test [1] addresses T1, kinases of the scanMAX Kinase assay panel (Homo sapiens, UniProt P22607, G697C).
T1 construct: purchased DiscoverX Co. (contract measurement) scanMAX Kinase assay panel
The note with it: FGFR3(G697C); 1 uM. In a few lines: (§1)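 Binding-panel profiling at one concentration, 1 uM in DMSO; values are % of DMSO control after subtracting the positive-control floor. Less than 35% means activity on that kinase.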

The target in test [2] is T2, kinases of the scanMAX Kinase assay panel (Homo sapiens, UniProt O14733).
T2 construct: purchased DiscoverX Co. (contract measurement) scanMAX Kinase assay panel
T2 sequence (O14733 1-419): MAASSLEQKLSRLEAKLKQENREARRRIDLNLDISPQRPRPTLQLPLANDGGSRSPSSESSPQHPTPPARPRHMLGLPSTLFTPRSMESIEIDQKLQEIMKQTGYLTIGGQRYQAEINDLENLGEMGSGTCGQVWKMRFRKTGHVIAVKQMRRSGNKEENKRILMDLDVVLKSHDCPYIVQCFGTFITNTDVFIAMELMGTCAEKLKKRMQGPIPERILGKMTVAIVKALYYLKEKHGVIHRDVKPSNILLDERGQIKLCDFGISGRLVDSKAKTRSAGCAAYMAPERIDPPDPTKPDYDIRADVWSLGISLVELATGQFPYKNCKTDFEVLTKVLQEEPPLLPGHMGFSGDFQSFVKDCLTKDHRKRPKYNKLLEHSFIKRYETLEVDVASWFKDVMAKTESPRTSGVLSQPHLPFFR
The note with it: MKK7; 1 uM. A digest of the protocol:
as §1

Test [3] has as its target T3, kinases of the scanMAX Kinase assay panel (Homo sapiens, UniProt P43405).
T3 construct: purchased DiscoverX Co. (contract measurement) scanMAX Kinase assay panel
The settings on record: kinase SYK; 1 uM in DMSO. A digest of the protocol: as §1

Test [4] concerns the target T4, kinases of the scanMAX Kinase assay panel (Homo sapiens, UniProt O15530).
T4 construct: purchased DiscoverX Co. (contract measurement) scanMAX Kinase assay panel
T4 sequence (O15530 1-556): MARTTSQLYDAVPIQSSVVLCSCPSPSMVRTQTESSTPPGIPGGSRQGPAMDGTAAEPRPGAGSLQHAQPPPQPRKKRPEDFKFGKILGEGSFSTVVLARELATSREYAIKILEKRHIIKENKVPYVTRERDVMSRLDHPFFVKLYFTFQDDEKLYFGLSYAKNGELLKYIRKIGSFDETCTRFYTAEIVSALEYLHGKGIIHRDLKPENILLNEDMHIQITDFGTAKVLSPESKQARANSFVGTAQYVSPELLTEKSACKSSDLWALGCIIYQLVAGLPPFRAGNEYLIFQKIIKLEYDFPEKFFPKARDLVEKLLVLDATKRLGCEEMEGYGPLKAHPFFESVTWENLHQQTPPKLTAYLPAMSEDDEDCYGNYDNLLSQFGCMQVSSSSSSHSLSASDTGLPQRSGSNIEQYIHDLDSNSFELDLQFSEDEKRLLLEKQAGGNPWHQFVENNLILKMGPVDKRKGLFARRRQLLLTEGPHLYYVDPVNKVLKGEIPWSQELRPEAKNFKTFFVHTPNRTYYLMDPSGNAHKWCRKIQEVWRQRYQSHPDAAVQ
The settings on record: PDPK1; 1 uM. A digest of the protocol:
as §1

Test [5] concerns the target T5, kinases of the scanMAX Kinase assay panel (Homo sapiens, UniProt O43318).
T5 construct: purchased DiscoverX Co. (contract measurement) scanMAX Kinase assay panel
T5 sequence (O43318 1-606): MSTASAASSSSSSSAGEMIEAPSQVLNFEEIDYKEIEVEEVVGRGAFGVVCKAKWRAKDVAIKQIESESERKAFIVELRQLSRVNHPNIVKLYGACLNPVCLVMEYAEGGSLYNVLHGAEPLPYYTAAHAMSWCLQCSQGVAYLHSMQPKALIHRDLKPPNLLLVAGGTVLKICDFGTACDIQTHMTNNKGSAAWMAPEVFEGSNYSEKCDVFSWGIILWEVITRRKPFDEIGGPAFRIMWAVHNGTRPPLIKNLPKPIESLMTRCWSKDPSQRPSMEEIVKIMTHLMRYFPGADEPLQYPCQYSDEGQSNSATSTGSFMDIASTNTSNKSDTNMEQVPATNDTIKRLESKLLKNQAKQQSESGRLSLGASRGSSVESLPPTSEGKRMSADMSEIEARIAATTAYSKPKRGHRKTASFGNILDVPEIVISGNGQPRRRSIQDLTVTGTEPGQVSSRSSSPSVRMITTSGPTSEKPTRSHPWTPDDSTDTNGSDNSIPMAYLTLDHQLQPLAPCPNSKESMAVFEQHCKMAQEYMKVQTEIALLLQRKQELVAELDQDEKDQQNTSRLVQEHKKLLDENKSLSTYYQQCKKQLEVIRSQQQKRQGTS
The note with it: kinase TAK1; 1 uM in DMSO. A digest of the protocol: as §1

For test [6], the target named is T6, kinases of the scanMAX Kinase assay panel (Homo sapiens, UniProt Q9P286).
T6 construct: purchased DiscoverX Co. (contract measurement) scanMAX Kinase assay panel
The note with it: PAK7; 1 uM. In a few lines:
as §1

For test [7], the target named is T7, kinases of the scanMAX Kinase assay panel (Homo sapiens, UniProt Q9BXA7).
T7 construct: purchased DiscoverX Co. (contract measurement) scanMAX Kinase assay panel
T7 sequence (Q9BXA7 1-367): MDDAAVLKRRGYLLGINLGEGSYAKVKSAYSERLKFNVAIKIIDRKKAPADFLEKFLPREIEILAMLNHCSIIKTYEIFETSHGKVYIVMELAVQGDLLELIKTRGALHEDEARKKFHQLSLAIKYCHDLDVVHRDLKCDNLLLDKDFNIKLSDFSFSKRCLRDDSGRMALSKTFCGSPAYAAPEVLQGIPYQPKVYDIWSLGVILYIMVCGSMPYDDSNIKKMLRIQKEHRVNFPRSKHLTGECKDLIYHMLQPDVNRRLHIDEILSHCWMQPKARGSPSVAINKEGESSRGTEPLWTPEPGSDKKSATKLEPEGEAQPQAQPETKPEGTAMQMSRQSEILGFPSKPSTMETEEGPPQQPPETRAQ
The note with it: kinase TSSK1B; 1 uM in DMSO. In a few lines: as §1

For test [8], the target named is T8, kinases of the scanMAX Kinase assay panel (Homo sapiens, UniProt Q96SB4).
T8 construct: purchased DiscoverX Co. (contract measurement) scanMAX Kinase assay panel
The note with it: kinase SRPK1; 1 uM in DMSO. A digest of the protocol:
as §1

For test [9], the target named is T9, kinases of the scanMAX Kinase assay panel (Homo sapiens, UniProt P49760).
T9 construct: purchased DiscoverX Co. (contract measurement) scanMAX Kinase assay panel
The settings on record: CLK2; 1 uM. A digest of the protocol:
as §1

Test [10] has as its target T10, kinases of the scanMAX Kinase assay panel (Homo sapiens, UniProt Q13233).
T10 construct: purchased DiscoverX Co. (contract measurement) scanMAX Kinase assay panel
The settings on record: MAP3K1; 1 uM. A digest of the protocol: as §1

Here are results for three compounds from US11208412B2 (DAEGU-GYEONGBUK MEDICAL INNOVATION FOUNDATION, priority 2017, dated 2021).

T10 sequence (Q13233 whole entry): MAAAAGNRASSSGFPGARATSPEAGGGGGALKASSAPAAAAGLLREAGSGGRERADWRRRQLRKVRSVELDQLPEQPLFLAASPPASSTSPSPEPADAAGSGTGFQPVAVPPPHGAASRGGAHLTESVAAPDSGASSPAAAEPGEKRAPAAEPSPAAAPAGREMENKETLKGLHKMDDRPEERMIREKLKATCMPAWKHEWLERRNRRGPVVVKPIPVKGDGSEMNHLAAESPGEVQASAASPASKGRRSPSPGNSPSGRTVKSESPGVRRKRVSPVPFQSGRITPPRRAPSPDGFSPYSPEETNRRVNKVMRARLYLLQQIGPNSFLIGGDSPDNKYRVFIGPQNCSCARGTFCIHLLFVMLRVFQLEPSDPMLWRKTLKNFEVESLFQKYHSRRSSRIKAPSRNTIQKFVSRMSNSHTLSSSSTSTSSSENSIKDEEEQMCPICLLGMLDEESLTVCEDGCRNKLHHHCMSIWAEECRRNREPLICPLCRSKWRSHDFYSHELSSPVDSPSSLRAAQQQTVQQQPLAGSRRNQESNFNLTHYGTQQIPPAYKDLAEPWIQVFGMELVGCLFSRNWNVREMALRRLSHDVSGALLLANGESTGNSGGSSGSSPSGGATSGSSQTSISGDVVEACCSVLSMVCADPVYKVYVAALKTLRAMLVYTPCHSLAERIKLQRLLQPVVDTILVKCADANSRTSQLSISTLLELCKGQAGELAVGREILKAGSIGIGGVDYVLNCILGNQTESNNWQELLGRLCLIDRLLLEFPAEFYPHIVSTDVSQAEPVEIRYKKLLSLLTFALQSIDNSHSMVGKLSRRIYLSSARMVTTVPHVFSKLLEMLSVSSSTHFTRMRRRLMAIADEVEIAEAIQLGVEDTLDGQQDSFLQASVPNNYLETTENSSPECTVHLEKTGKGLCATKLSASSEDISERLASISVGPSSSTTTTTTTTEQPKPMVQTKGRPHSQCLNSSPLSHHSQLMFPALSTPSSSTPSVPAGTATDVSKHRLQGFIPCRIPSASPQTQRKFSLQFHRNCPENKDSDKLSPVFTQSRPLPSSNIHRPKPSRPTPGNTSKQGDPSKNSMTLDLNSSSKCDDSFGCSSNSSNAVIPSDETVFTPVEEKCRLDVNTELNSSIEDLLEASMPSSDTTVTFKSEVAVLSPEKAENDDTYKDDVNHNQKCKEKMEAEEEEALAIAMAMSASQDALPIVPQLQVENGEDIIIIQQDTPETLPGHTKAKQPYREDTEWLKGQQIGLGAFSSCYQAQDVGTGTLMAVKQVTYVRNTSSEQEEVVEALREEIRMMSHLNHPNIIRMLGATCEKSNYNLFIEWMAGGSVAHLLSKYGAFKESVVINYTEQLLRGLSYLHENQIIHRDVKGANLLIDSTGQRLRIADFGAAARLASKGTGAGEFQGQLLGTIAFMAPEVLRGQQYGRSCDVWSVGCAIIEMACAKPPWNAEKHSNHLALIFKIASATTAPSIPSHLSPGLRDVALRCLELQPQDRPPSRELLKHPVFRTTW
T1 sequence (P22607 23-806 G697C): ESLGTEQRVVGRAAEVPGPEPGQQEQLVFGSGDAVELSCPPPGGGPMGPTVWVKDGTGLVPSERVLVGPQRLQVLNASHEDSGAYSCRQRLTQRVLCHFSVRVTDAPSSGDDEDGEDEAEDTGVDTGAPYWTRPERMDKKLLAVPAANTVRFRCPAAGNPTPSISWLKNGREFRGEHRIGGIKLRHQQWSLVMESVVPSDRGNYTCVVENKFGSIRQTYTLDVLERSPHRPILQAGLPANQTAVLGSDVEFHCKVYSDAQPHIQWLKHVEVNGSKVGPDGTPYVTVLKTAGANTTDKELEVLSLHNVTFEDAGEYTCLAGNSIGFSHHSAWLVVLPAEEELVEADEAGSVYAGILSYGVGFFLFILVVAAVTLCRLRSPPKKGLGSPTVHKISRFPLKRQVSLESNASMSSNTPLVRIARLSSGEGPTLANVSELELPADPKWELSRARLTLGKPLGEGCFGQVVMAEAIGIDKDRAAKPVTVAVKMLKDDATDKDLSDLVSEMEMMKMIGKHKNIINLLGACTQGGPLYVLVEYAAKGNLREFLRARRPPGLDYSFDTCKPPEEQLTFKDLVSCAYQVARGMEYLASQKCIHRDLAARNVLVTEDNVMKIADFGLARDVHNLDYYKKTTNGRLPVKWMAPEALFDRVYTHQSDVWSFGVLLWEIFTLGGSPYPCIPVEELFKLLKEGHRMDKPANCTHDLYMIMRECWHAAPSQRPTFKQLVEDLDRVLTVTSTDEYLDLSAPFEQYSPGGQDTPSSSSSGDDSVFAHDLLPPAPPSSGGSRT
T9 sequence (P49760 whole entry): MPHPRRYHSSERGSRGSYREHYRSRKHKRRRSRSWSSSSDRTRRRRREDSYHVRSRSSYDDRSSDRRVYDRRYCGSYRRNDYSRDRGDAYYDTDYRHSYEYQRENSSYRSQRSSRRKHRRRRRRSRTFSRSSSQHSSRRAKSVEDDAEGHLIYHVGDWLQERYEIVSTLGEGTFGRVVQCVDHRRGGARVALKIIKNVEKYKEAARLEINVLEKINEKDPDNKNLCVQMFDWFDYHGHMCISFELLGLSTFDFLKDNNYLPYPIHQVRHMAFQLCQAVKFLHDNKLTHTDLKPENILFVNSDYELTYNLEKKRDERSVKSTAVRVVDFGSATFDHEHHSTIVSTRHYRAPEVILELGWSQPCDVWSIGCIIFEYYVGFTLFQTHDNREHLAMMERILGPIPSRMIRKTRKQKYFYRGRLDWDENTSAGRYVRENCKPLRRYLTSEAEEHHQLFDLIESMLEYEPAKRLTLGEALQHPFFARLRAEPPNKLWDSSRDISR
T8 sequence (Q96SB4 whole entry): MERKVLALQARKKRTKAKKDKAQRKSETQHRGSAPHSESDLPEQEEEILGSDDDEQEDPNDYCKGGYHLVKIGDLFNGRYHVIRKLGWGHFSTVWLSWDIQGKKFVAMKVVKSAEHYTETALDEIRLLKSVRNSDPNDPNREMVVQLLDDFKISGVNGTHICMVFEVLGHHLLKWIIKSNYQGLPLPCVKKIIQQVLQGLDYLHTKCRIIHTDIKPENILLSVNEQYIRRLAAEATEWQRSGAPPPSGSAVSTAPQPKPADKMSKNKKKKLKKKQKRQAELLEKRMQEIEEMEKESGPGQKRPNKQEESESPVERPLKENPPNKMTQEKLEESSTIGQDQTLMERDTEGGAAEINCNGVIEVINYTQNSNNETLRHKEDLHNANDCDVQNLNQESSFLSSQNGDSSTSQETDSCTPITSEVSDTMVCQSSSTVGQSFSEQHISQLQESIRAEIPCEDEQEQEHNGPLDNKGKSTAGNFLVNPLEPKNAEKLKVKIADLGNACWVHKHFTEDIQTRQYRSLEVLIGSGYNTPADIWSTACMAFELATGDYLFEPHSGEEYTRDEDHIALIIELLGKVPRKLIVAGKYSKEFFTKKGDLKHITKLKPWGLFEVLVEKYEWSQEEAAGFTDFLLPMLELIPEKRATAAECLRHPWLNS
T6 sequence (Q9P286 whole entry): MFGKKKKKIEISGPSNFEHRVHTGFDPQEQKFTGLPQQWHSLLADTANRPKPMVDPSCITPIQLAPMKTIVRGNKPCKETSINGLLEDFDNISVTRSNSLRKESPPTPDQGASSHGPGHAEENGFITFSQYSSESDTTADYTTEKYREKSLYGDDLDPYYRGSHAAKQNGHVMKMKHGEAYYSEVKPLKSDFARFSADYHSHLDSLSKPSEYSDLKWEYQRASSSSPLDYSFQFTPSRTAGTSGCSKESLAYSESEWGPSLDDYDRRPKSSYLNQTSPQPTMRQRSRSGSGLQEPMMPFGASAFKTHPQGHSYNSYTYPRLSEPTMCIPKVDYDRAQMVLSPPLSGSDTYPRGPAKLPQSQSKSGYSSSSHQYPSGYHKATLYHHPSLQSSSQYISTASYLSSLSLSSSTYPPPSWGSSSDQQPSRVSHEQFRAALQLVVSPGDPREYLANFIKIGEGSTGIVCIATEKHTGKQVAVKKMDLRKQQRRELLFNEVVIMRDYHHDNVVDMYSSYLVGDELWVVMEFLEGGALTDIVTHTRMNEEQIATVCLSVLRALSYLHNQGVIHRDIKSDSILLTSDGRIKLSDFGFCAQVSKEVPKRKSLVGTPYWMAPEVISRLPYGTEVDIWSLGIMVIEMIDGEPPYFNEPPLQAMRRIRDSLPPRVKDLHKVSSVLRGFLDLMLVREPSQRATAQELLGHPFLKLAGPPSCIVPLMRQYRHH

Regarding `CNc1nc(Nc2ccc(C(=O)N3CCOCC3)cc2OC)nc2[nH]cc(C#N)c12` [Example 1, 2-((2-methoxy-4-(morpholine-4-carbonyl)phenyl)amino)-4-(methylamino)-7H-pyrrolo[2,3-d]pyrimidine-5-carbonitrile], the remaining binding at 1 µM in [1] came to 97%; in test [2], 48%; in test [3], 62%; in [4], 81%; in [5] it was 52%; in [6] it was 91%. For the same compound, the remaining binding at 1 µM is 22% in [7], 66% in [8], 5.9% in test [9] and 100% in test [10].
Regarding `CC1(Nc2nc(Nc3cnn([C@H]4CCN(C5COC5)C[C@@H]4F)c3Cl)nc3[nH]cc(C#N)c23)CC1` [Example 52, 2-((5-chloro-1-((3S,4S)-3-fluoro-1-(oxetane-3-yl)piperidine-4-yl)-1H-pyrazole-4-yl)amino)((1-methylcyclopropyl)amino)-7H-pyrrolo[2,3-d]pyrimidine-5-carbonitrile], the remaining binding at 1 µM was found to be 11% in [1]; 6.1% in test [2]; 0.4% in test [3]; 70% in [4]; 0.05% in [5]; 0.25% in [6]. Moreover, the remaining binding at 1 µM in [7] was 0.6%; in test [8], 0.05%; in [9] it was 2.6%; in test [10] it was 81%.
As for `CCNc1nc(Nc2ccc(C(=O)N3CCC(N4CCOCC4)CC3)cc2OC)nc2[nH]cc(C(F)(F)F)c12` [Example 104, (4-((4-(ethylamino)-5-(trifluoromethyl)-7H-pyrrolo[2,3-d]pyrimidine-2-yl)amino)-3-methoxyphenyl)(4-morpholinopiperidine-1-yl)methanone], the remaining binding at 1 µM in test [1] was 100%; in [2], 100%; in test [3] it was 70%; in test [4], 100%; in [5] it was 100%; in test [6], 85%. Moreover, the remaining binding at 1 µM in [7] turned out to be 0%; in test [8] it was 100%; in test [9], 0.9%; in test [10] it was 83%.
